Results taken from US10772886B2, “CXCR-2 inhibitors for treating crystal arthropathy disorders” (ARDEA BIOSCIENCES, INC., priority 2016, dated 2020).

Tests used:
neutrophils = test: Cell migration (chemotaxis) assay, neutrophil counts; assay type: cell-based; details: 10 μM; MSU-conditioned media; FIG. 1A
PBMCs = test: Cell migration (chemotaxis) assay, PBMC counts; assay type: cell-based; details: 10 μM; MSU crystal conditioned media; FIG. 1B
Experimental: Primary blood monocytes (PMBC) were obtained from the lymphocyte layer (buffy coat) of peripheral blood from normal donors. Each leukopack (Interstate Blood Bank) was diluted with an equal volume of PBS, and 35 mL of blood preparation was over-laid onto 15 mL of Ficoll-Paque™ PLUS (GE Healthcare Bio-Sciences). Tubes were centrifuged at 700×g without breaks for 30 minutes at room temperature. The buffy coat interface was removed, added to PBS (40 mL), and centrifuged at 300×g. Any remaining erythrocytes in the cell pellet were lysed by incubating cells in red blood cell lysis buffer (10 mL, R&D Systems) for 10 minutes at room temperature. Following lysis, PBS (40 mL) was added and the cells centrifuged for 5 minutes at 200×g. The pellet was washed once with PBS and re-suspended in complete RPMI and seeded onto a BD Falcon™ 100 mm tissue culture dish (Cat. No. 353003). After one hour, the media was aspirated and the adherent cells (predominantly monocytes) were harvested using a cell scraper and used in chemotaxis assays. Chemotaxis was assayed in 48-well plates with BD Falcon FluoroBlok Multiwell inserts with 3 μm pores (Cat. No. 351161 or 351162) coated with hFN. […] Fluorescence emitted from cells that had migrated to the bottom surface of the insert was measured at various time points. Cells labeled with Calcein AM were read at 485/530 nm (Ex/Em) wavelength. […]

CXCR-2 = target: T1, CXCR-2 (Homo sapiens, UniProt P25025); details: cited from earlier work
T1 sequence (P25025 1-360): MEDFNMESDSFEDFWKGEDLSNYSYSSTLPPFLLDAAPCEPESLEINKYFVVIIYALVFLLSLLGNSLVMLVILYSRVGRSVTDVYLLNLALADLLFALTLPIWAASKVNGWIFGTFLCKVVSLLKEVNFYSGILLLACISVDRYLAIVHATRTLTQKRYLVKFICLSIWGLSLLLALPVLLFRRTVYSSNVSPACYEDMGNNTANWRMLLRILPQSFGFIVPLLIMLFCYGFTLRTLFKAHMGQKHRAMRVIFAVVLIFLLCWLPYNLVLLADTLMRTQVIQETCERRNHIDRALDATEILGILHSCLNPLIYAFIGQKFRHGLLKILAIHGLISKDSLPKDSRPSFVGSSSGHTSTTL

O=C(Nc1ccc(Cl)c(S(=O)(=O)N2CCNCC2)c1O)Nc1cccc(F)c1Cl [Compound 1, 1-(4-chloro-2-hydroxy-3-(piperazin-1-ylsulfonyl)phenyl)-3-(2-chloro-3-fluorophenyl)urea]
inhibition of migration in neutrophils (neutrophils): significant inhibition of migration | inhibition in migration in PBMCs (PBMCs): significant inhibition in migration | inhibit CXCR-2 (CXCR-2): shown to inhibit CXCR-2
